Read-outs that look alike come from different tables or passages of the source.
Experiments:
[1] = tested on: H929 multiple myeloma tumour line; test: In vitro cytotoxicity, Microculture Tetrazolium Assay; assay type: cell-based; conditions: H929 cells, 48 hours exposure, read-out: IC50 (μM) MTT H929
Procedure: The cytotoxicity studies were carried out on the H929 multiple myeloma tumour line.
The cells are distributed onto microplates and exposed to the test compounds for 48 hours.

Mcl-1 protein = Mcl-1 protein (UniProtKB primary accession number: Q07820) (Homo sapiens, UniProt Q07820); test: Inhibition of Mcl-1 by fluorescence polarisation, Method 1; assay type: binding; conditions: read-out: IC50 (M) Mcl-1 FP
Chain of Mcl-1 protein (Q07820 whole entry): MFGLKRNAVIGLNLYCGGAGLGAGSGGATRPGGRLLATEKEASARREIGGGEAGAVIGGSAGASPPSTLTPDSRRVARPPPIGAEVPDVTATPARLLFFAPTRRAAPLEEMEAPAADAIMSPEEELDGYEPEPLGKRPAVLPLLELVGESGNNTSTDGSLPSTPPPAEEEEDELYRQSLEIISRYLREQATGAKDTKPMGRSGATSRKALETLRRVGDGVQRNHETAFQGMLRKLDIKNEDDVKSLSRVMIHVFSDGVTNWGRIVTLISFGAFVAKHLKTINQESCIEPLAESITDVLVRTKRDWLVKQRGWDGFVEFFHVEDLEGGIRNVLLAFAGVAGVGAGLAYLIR
Procedure, shortened: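 FP readout of relative binding potency. Mcl-1 5 nM final, fluorescein-labelled ligand 1 nM final; buffer 10 mM HEPES, 150 mM NaCl, 0.05% Tween 20, pH 7.4; 11-pt dilution series, 5% DMSO final.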

[2] = Homo sapiens, NCI-H929, 48 h, MTT
[3] = fluorescence polarisation test, Method 2 values are underlined in the patent (underlining not visible here)
[4] = fluorescence polarisation, Method 1, or Method 2

| IC50 (Mcl-1 protein; [3]) [M] | IC50 (Mcl-1 protein; [4]) [M] | SMILES | IC50 [1, 2] [µM] | other results |
| --- | --- | --- | --- | --- |
| 7.3e-09 |  | Cc1c(-c2c(-c3ccc(F)cc3)sc3ncnc(OC(Cc4ccccc4OCc4ccn[nH]4)C(=O)O)c23)ccc(OCCN2CCN(C)CC2)c1Cl [Example 125, (2R)-2-{[(5Sa)-5-{3-chloro-2-methyl-4-[2-(4-methylpiperazin-1-yl)ethoxy]phenyl}-6-(4-fluorophenyl)thieno[2,3-d]pyrimidin-4-yl]oxy}-3-[2-(1H-pyrazol-5-ylmethoxy)phenyl]propanoic acid] | 0.354 |  |
| 1.7e-09 |  | Cc1c(-c2c(-c3ccco3)sc3ncnc(OC(Cc4ccccc4OCc4ccnn4C(C)C)C(=O)O)c23)ccc(OCCN2CCN(C)CC2)c1Cl [Example 261, (2R)-2-{[(5Sa)-5-{3-chloro-2-methyl-4-[2-(4-methylpiperazin-1-yl)ethoxy]phenyl}-6-(furan-2-yl)thieno[2,3-d]pyrimidin-4-yl]oxy}-3-(2-{[1-(propan-2-yl)-1H-pyrazol-5-yl]methoxy}phenyl)propanoic acid] | 0.018 |  |
|  | 9.9e-09 | CCn1nccc1COc1ccccc1CC(Oc1ncnc2sc(-c3cccc(F)c3F)c(-c3ccc(OCCN4CCN(C)CC4)c(Cl)c3C)c12)C(=O)O [Example 704, (2R)-2-{[(5Sa)-5-{3-chloro-2-methyl-4-[2-(4-methylpiperazin-1-yl)ethoxy]phenyl}-6-(2,3-difluorophenyl)thieno[2,3-d]pyrimidin-4-yl]oxy}-3-{2-[(1-ethyl-1H-pyrazol-5-yl)methoxy]phenyl}propanoic acid] | 0.025 |  |
| 8.3e-09 |  | Cc1c(-c2c(-c3ccco3)sc3ncnc(OC(Cc4ccccc4OCc4nccn4C)C(=O)O)c23)ccc(OCCN2CCN(C)CC2)c1Cl [Example 287, (2R)-2-{[(5Sa)-5-{3-chloro-2-methyl-4-[2-(4-methylpiperazin-1-yl)ethoxy]phenyl}-6-(furan-2-yl)thieno[2,3-d]pyrimidin-4-yl]oxy}-3-{2-[(1-methyl-1H-imidazol-2-yl)methoxy]phenyl}propanoic acid] | 0.667 |  |
| 1.3e-08 |  | COc1cc(-c2sc3ncnc(OC(Cc4ccccc4OCc4ccccn4)C(=O)O)c3c2-c2ccc(OCCN3CCN(C)CC3)c(Cl)c2C)ccc1F [Example 381, (2R)-2-{[(5Sa)-5-{3-chloro-2-methyl-4-[2-(4-methylpiperazin-1-yl)ethoxy]phenyl}-6-(4-fluoro-3-methoxyphenyl)thieno[2,3-d]pyrimidin-4-yl]oxy}-3-[2-(pyridin-2-ylmethoxy)phenyl]propanoic acid] | 0.119 |  |
| 4.6e-09 |  | Cc1c(-c2c(-c3ccc(Cl)o3)sc3ncnc(OC(Cc4ccccc4OCc4ccnn4CC(F)(F)F)C(=O)O)c23)ccc(OCCN2CCN(C)CC2)c1Cl [Example 373, (2R)-2-{[6-(5-chlorofuran-2-yl)-(5Sa)-5-{3-chloro-2-methyl-4-[2-(4-methylpiperazin-1-yl)ethoxy]phenyl}thieno[2,3-d]pyrimidin-4-yl]oxy}-3-(2-{[1-(2,2,2-trifluoroethyl)-1H-pyrazol-5-yl]methoxy}phenyl)propanoic acid] | 0.012 |  |
| 7.2e-09 |  | Cc1c(-c2c(-c3ccco3)sc3ncnc(OC(Cc4ccccc4OCc4ccccc4)C(=O)O)c23)ccc(OCCN2CCN(C)CC2)c1Cl [Example 240, (2R)-3-[2-(benzyloxy)phenyl]-2-{[(5Sa)-5-{3-chloro-2-methyl-4-[2-(4-methylpiperazin-1-yl)ethoxy]phenyl}-6-(furan-2-yl)thieno[2,3-d]pyrimidin-4-yl]oxy}propanoic acid] | 0.225 |  |
|  | 8.5e-08 | COc1ccccc1CC(Oc1ncnc2sc(-c3ccc(C4CC4)o3)c(-c3ccc(OCCN4CCN(C)CC4)c(Cl)c3C)c12)C(=O)O [Example 585, (2R)-2-{[(5Sa)-5-{3-chloro-2-methyl-4-[2-(4-methylpiperazin-1-yl)ethoxy]phenyl}-6-(5-cyclopropylfuran-2-yl)thieno[2,3-d]pyrimidin-4-yl]oxy}-3-(2-methoxyphenyl)propanoic acid] | 2.92 |  |
| 8.2e-09 |  | Cc1c(-c2c(-c3ccc(F)o3)sc3ncnc(OC(Cc4ccccc4OCc4cccc(C(F)(F)F)n4)C(=O)O)c23)ccc(OCCN2CCN(C)CC2)c1Cl [Example 164, (2R)-2-{[(5Sa)-5-{3-chloro-2-methyl-4-[2-(4-methylpiperazin-1-yl)ethoxy]phenyl}-6-(5-fluorofuran-2-yl)thieno[2,3-d]pyrimidin-4-yl]oxy}-3-(2-{[6-(trifluoromethyl)pyridin-2-yl]methoxy}phenyl)propanoic acid] | 0.046 |  |
| 1.7e-08 |  | Cc1c(-c2c(-c3ccco3)sc3ncnc(OC(Cc4ccccc4OCc4ncccc4Cl)C(=O)O)c23)ccc(OCCN2CCN(C)CC2)c1Cl [Example 285, (2R)-2-{[(5Sa)-5-{3-chloro-2-methyl-4-[2-(4-methylpiperazin-1-yl)ethoxy]phenyl}-6-(furan-2-yl)thieno[2,3-d]pyrimidin-4-yl]oxy}-3-{2-[(3-chloropyridin-2-yl)methoxy]phenyl}propanoic acid] | 0.588 |  |

Continued, compound first:

| SMILES | IC50 (Mcl-1 protein; [3]) [M] | IC50 (Mcl-1 protein; [4]) [M] | IC50 [1, 2] [µM] | other results |
| --- | --- | --- | --- | --- |
| COc1ccc(-c2sc3ncnc(OC(Cc4ccccc4OCc4ccnc(-c5ccccc5OC)n4)C(=O)O)c3c2-c2ccc(OCCN3CCN(C)CC3)c(Cl)c2C)cc1 (single isomer, unassigned) [Example 760] |  | 1.18e-09 |  | IC50 ([1]; MTT): 0.004 µM |
| Cc1c(-c2c(-c3ccc(F)o3)sc3ncnc(OC(Cc4ccc(F)cc4OCc4cnccn4)C(=O)O)c23)ccc(OCCN2CCN(C)CC2)c1Cl [Example 691, (2R)-2-{[(5Sa)-5-{3-chloro-2-methyl-4-[2-(4-methylpiperazin-1-yl)ethoxy]phenyl}-6-(5-fluorofuran-2-yl)thieno[2,3-d]pyrimidin-4-yl]oxy}-3-[4-fluoro-2-(pyrazin-2-ylmethoxy)phenyl]propanoic acid] |  | 9.6e-09 | 0.037 |  |
| CCc1sc2ncnc(OC(Cc3ccccc3)C(=O)O)c2c1-c1ccc(OCCc2cccnc2)c(Cl)c1C [Example 396, (2R)-2-[((5Sa)-5-{3-chloro-2-methyl-4-[2-(pyridin-3-yl)ethoxy]phenyl}-6-ethylthieno[2,3-d]pyrimidin-4-yl)oxy]-3-phenylpropanoic acid] |  | 9.9e-08 | 16.1 |  |
| CC#Cc1sc2ncnc(OC(Cc3ccccc3OC)C(=O)O)c2c1-c1ccc(OCCN2CCCC2)c(Cl)c1C [Example 468, (2R)-2-{[(5Sa)-5-{3-chloro-2-methyl-4-[2-(pyrrolidin-1-yl)ethoxy]phenyl}-6-(prop-1-yn-1-yl)thieno[2,3-d]pyrimidin-4-yl]oxy}-3-(2-methoxyphenyl)propanoic acid] |  | 8.6e-09 | 2.02 |  |
| Cc1c(-c2c(-c3ccc(F)cc3)sc3ncnc(OC(Cc4ccccc4OCc4ccnc(CC(C)C)n4)C(=O)O)c23)ccc(OCCN2CCN(C)CC2)c1Cl [Example 38, (2R)-2-{[(5Sa)-5-{3-chloro-2-methyl-4-[2-(4-methylpiperazin-1-yl)ethoxy]phenyl}-6-(4-fluorophenyl)thieno[2,3-d]pyrimidin-4-yl]oxy}-3-(2-{[2-(2-methylpropyl)pyrimidin-4-yl]methoxy}phenyl)propanoic acid] | 1.9e-09 |  | 0.016 |  |
| COc1ccccc1-c1nccc(COc2ccccc2CC(Oc2ncnc3sc(-c4cccc(F)c4)c(-c4ccc(OCCN5CCN(C)CC5)c(Cl)c4C)c23)C(=O)O)n1 [Example 836, (2R)-2-{[(5Sa)-5-{3-chloro-2-methyl-4-[2-(4-methylpiperazin-1-yl)ethoxy]phenyl}-6-(3-fluorophenyl)thieno[2,3-d]pyrimidin-4-yl]oxy}-3-(2-{[2-(2-methoxyphenyl)pyrimidin-4-yl]methoxy}phenyl)propanoic acid] |  |  |  | IC50 ([1]; Homo sapiens, NCI-H929, 48 h, cell viability): 0.002 µM; IC50 (Mcl-1 protein; fluorescence polarisation test, Method 1, or Method 2 where the value is underlined (underlining not visible)): 2.8e-09 M |
| Cc1cc(-c2nccc(COc3ccccc3CC(Oc3ncnc4sc(-c5ccc(F)cc5)c(-c5ccc(OCCN(C)C)c(Cl)c5C)c34)C(=O)O)n2)ccn1 [Example 136, (2R)-2-{[(5Sa)-5-{3-chloro-4-[2-(dimethylamino)ethoxy]-2-methylphenyl}-6-(4-fluorophenyl)thieno[2,3-d]pyrimidin-4-yl]oxy}-3-(2-{[2-(2-methylpyridin-4-yl)pyrimidin-4-yl]methoxy}phenyl)propanoic acid] | 7.7e-09 |  | 0.015 |  |
| COc1ccccc1CC(Oc1ncnc2sc(-c3ccc(F)c(C(F)(F)F)c3)c(-c3ccc(OCCN4CCN(C)CC4)c(Cl)c3C)c12)C(=O)O [Example 531, (2R)-2-[(5Sa)-(5-{3-chloro-2-methyl-4-[2-(4-methylpiperazin-1-yl)ethoxy]phenyl}-6-[4-fluoro-3-(trifluoromethyl)phenyl]thieno[2,3-d]pyrimidin-4-yl)oxy]-3-(2-methoxyphenyl)propanoic acid] |  | 3.5e-09 | 1.22 |  |
| Cc1c(-c2c(-c3ccc(F)cc3)sc3ncnc(OC(Cc4ccccc4OCc4ccnc(OCc5cncn5C)n4)C(=O)O)c23)ccc(OCCN2CCN(C)CC2)c1Cl [Example 60, (2R)-2-{[(5Sa)-5-{3-chloro-2-methyl-4-[2-(4-methylpiperazin-1-yl)ethoxy]phenyl}-6-(4-fluorophenyl)thieno[2,3-d]pyrimidin-4-yl]oxy}-3-[2-({2-[(1-methyl-1H-imidazol-5-yl)methoxy]pyrimidin-4-yl}methoxy)phenyl]propanoic acid] | 2.4e-09 |  | 0.17 |  |

— US9670227B2, “Thienopyrimidine derivatives, a process for their preparation and pharmaceutical compositions containing them” (LES LABORATOIRES SERVIER, priority 2013, dated 2017)
